Laboratory results published in publication PMC2742655 (Bioorganic & medicinal chemistry letters, 2009).
Blank lines part the entries; values can stand above or below the compound they belong to.

Experiments:
[1] = system: P. falciparum trophozoites (food vacuole); details: parasites incubated with compound; cited from earlier work
[2] = biological target: T1, falcipain-2 (FP-2) (Plasmodium falciparum, UniProt Q8I6U4); assay type: biochemical; details: ratio 6d:12d:5, relative to 5 = 1
T1 sequence (Q8I6U4 244-484): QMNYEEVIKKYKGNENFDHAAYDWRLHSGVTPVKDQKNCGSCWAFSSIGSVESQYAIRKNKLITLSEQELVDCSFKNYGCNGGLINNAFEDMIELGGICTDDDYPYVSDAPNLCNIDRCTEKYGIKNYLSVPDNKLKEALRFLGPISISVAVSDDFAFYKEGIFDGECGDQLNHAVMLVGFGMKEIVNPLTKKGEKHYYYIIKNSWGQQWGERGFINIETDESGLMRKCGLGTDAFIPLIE

[3] = system: P. falciparum W2 strain (chloroquine-resistant); experiment: Antiplasmodial activity, growth of P. falciparum W2 strain; assay type: cell-based; details: Plasmodium falciparum, W2, read-out: IC50 W2
[4] = system: P. falciparum FCR3 (atovaquone resistant); experiment: Antiplasmodial activity, FCR3 strain; assay type: cell-based; details: Plasmodium falciparum, FCR3, read-out: IC50 FCR3
[5] = system: P. falciparum 3D7 (chloroquine-sensitive); experiment: Antiplasmodial activity, 3D7 strain; assay type: cell-based; details: Plasmodium falciparum, 3D7, read-out: IC50 3D7
[6] = system: P. falciparum V1/S (chloroquine and pyrimethamine resistant); experiment: microbe, parasite or virus in culture; assay type: cell-based; details: Plasmodium falciparum, read-out: IC50 VI/S
[7] = system: P. falciparum D6 (chloroquine sensitive, mefloquine resistant); experiment: Antiplasmodial activity, D6 strain; assay type: cell-based; details: Plasmodium falciparum, D6, read-out: IC50 D6

Compound: CC(C)C[C@H](NC(=O)[C@H]1O[C@@H]1C(=O)O)C(=O)NCCCCN=C(N)N [Compound E64, E64]
- swollen food vacuole abnormality (block in hemoglobin hydrolysis) [1]: observed

Compound: CC(C)C[C@H](NC(=O)c1ccc(CO[C@H]2O[C@@H]3O[C@@]4(C)CC[C@H]5[C@H](C)CC[C@@H]([C@H]2C)[C@@]35OO4)cc1)C(=O)N[C@H](/C=C/S(=O)(=O)c1ccccc1)CCc1ccccc1 [Compound 6d]
- IC50 ratio for FP-2 inhibition [2]: 1650

- IC50 ratio for FP-2 inhibition [2]: 1
Compound: CC(C)C[C@H](NC(=O)N1CCOCC1)C(=O)N[C@H](/C=C/S(=O)(=O)c1ccccc1)CCc1ccccc1 [Compound 5, Mu-Leu-hPhe-VSPh]

Compound: CCN(CC)CCCC(C)Nc1ccnc2cc(Cl)ccc12 (stereo not drawn) [Chloroquine]
- IC50 [3]: 78.1 ± 6.91 nM
- IC50 [4]: 51.1 ± 0.1 nM
- IC50 [5]: 11.6 ± 1.1 nM
- IC50 [6]: 65 ± 4.1 nM
- IC50 [7]: 16.9 ± 2.1 nM

- IC50 ratio for FP-2 inhibition [2]: 70
Compound: CC(C)C[C@H](NC(=O)OC(C)(C)C)C(=O)N[C@H](/C=C/S(=O)(=O)c1ccccc1)CCc1ccccc1 [Compound 12d]
